What was measured:
Format in all cases: binding
[1] = molecular target: T1, SW480 colon carcinoma cells lysate proteins (Homo sapiens, UniProt O60664); details: PreyGene PLIN3
T1 sequence (O60664 1-434): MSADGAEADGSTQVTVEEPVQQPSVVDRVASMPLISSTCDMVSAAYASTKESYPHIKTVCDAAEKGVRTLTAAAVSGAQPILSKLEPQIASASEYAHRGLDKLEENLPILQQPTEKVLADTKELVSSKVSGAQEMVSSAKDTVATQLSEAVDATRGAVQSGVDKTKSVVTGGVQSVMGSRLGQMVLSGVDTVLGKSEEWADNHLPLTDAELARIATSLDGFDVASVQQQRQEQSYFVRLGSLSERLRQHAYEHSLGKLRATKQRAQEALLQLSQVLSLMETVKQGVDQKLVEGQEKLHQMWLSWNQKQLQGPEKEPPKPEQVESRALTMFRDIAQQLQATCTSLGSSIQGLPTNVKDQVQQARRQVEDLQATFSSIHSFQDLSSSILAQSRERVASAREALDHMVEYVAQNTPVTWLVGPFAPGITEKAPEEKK

[2] = molecular target: SW480 colon carcinoma cells lysate proteins (Homo sapiens, UniProt P07237); details: PreyGene P4HB
[3] = molecular target: SW480 colon carcinoma cells lysate proteins (Homo sapiens, UniProt P18085); details: PreyGene ARF4
[4] = molecular target: T2, SW480 colon carcinoma cells lysate proteins (Homo sapiens, UniProt P52209); details: PreyGene PGD
T2 sequence (P52209 1-483): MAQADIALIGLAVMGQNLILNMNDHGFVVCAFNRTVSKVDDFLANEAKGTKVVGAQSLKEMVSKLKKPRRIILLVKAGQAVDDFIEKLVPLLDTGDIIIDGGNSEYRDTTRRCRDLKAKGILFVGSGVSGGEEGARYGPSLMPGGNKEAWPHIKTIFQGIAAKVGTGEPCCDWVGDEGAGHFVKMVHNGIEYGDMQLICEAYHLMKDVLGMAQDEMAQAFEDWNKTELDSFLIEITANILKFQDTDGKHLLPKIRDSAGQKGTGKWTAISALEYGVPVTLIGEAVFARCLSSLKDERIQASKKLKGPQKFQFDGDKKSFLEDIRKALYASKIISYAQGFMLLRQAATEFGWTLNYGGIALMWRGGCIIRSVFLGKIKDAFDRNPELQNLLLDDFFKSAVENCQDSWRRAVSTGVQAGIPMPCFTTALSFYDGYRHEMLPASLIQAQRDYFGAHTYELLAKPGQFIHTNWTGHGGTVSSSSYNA

[5] = molecular target: T3, SW480 colon carcinoma cells lysate proteins (Homo sapiens, UniProt P52565); details: PreyGene ARHGDIA
T3 sequence (P52565 1-204): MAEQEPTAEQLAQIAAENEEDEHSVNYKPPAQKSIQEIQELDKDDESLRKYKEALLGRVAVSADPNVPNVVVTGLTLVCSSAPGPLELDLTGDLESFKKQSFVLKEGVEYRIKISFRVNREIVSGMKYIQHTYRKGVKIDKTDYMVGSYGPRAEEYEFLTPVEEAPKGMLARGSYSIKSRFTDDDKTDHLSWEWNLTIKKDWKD

[6] = molecular target: SW480 colon carcinoma cells lysate proteins (Homo sapiens, UniProt Q14152); details: PreyGene EIF3A; SW480 cells
[7] = molecular target: SW480 colon carcinoma cells lysate proteins (Homo sapiens, UniProt Q92616); details: PreyGene GCN1L1; SW480 cells
[8] = molecular target: T4, SW480 colon carcinoma cells lysate proteins (Homo sapiens, UniProt Q9H910); details: PreyGene HN1L
T4 sequence (Q9H910 1-190): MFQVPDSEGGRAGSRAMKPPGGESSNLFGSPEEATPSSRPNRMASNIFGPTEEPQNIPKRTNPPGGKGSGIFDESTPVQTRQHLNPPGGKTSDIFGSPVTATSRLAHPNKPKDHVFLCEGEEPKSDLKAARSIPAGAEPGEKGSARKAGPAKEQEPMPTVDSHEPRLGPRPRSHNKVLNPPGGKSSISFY

[9] = molecular target: SW480 colon carcinoma cells lysate proteins (Homo sapiens, UniProt Q9Y262); details: PreyGene EIF3L; SW480 cells

SW480 colon carcinoma cells lysate proteins (Homo sapiens, UniProt P18085), sequence (P18085 whole entry): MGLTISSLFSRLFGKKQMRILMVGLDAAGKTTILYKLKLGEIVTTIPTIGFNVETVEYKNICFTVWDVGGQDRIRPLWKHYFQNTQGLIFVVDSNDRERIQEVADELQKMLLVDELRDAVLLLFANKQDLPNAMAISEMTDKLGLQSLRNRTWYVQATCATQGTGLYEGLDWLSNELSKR
SW480 colon carcinoma cells lysate proteins (Homo sapiens, UniProt Q14152), sequence (Q14152 whole entry): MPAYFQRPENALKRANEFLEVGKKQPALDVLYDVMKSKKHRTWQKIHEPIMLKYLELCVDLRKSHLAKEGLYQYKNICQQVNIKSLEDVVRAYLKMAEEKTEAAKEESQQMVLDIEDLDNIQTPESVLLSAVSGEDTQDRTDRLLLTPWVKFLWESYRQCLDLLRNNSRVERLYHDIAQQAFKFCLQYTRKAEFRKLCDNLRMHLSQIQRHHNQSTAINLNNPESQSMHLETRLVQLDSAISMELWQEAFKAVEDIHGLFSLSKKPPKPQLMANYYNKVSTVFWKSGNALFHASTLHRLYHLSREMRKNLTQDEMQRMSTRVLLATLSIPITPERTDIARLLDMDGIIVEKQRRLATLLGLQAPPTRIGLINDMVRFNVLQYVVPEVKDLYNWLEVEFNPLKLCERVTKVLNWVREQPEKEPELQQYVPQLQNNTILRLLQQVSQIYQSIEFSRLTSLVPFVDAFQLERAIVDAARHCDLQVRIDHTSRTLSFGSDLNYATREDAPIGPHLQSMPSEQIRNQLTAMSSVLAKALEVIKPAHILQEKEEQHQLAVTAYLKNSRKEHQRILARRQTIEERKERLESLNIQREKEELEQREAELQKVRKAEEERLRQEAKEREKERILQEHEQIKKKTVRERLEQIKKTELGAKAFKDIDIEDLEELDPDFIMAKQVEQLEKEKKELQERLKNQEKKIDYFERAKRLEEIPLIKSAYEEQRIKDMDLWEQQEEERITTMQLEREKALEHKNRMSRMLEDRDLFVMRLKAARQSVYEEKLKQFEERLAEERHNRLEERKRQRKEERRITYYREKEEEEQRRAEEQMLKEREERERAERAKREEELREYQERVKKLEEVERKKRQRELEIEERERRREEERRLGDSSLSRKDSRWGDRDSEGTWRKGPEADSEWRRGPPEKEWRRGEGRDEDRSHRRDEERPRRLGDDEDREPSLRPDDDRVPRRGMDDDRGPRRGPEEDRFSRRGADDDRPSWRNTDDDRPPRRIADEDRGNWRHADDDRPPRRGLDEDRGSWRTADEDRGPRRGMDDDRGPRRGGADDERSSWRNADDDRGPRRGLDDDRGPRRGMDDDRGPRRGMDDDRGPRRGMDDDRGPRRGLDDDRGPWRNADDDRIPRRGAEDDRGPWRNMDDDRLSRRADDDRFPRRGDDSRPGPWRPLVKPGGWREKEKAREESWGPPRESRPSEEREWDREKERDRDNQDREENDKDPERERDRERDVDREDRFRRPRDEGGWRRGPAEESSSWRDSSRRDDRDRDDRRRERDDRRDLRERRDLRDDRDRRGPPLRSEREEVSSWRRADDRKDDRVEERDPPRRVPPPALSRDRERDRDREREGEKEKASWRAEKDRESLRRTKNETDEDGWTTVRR
SW480 colon carcinoma cells lysate proteins (Homo sapiens, UniProt P07237), sequence (P07237 18-508): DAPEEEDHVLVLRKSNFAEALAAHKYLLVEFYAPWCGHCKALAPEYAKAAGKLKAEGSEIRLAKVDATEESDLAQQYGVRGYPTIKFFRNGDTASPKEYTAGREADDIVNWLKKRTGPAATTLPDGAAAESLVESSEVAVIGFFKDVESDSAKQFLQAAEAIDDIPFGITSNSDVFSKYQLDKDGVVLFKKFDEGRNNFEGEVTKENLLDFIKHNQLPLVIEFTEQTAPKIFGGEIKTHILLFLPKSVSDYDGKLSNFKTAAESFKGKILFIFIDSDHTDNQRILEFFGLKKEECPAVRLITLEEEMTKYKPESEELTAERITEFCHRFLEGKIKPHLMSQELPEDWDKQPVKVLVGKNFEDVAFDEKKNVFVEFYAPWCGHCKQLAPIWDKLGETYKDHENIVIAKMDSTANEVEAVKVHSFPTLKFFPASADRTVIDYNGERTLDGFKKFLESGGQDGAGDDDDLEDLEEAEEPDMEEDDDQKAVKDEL
SW480 colon carcinoma cells lysate proteins (Homo sapiens, UniProt Q92616), sequence (Q92616 whole entry): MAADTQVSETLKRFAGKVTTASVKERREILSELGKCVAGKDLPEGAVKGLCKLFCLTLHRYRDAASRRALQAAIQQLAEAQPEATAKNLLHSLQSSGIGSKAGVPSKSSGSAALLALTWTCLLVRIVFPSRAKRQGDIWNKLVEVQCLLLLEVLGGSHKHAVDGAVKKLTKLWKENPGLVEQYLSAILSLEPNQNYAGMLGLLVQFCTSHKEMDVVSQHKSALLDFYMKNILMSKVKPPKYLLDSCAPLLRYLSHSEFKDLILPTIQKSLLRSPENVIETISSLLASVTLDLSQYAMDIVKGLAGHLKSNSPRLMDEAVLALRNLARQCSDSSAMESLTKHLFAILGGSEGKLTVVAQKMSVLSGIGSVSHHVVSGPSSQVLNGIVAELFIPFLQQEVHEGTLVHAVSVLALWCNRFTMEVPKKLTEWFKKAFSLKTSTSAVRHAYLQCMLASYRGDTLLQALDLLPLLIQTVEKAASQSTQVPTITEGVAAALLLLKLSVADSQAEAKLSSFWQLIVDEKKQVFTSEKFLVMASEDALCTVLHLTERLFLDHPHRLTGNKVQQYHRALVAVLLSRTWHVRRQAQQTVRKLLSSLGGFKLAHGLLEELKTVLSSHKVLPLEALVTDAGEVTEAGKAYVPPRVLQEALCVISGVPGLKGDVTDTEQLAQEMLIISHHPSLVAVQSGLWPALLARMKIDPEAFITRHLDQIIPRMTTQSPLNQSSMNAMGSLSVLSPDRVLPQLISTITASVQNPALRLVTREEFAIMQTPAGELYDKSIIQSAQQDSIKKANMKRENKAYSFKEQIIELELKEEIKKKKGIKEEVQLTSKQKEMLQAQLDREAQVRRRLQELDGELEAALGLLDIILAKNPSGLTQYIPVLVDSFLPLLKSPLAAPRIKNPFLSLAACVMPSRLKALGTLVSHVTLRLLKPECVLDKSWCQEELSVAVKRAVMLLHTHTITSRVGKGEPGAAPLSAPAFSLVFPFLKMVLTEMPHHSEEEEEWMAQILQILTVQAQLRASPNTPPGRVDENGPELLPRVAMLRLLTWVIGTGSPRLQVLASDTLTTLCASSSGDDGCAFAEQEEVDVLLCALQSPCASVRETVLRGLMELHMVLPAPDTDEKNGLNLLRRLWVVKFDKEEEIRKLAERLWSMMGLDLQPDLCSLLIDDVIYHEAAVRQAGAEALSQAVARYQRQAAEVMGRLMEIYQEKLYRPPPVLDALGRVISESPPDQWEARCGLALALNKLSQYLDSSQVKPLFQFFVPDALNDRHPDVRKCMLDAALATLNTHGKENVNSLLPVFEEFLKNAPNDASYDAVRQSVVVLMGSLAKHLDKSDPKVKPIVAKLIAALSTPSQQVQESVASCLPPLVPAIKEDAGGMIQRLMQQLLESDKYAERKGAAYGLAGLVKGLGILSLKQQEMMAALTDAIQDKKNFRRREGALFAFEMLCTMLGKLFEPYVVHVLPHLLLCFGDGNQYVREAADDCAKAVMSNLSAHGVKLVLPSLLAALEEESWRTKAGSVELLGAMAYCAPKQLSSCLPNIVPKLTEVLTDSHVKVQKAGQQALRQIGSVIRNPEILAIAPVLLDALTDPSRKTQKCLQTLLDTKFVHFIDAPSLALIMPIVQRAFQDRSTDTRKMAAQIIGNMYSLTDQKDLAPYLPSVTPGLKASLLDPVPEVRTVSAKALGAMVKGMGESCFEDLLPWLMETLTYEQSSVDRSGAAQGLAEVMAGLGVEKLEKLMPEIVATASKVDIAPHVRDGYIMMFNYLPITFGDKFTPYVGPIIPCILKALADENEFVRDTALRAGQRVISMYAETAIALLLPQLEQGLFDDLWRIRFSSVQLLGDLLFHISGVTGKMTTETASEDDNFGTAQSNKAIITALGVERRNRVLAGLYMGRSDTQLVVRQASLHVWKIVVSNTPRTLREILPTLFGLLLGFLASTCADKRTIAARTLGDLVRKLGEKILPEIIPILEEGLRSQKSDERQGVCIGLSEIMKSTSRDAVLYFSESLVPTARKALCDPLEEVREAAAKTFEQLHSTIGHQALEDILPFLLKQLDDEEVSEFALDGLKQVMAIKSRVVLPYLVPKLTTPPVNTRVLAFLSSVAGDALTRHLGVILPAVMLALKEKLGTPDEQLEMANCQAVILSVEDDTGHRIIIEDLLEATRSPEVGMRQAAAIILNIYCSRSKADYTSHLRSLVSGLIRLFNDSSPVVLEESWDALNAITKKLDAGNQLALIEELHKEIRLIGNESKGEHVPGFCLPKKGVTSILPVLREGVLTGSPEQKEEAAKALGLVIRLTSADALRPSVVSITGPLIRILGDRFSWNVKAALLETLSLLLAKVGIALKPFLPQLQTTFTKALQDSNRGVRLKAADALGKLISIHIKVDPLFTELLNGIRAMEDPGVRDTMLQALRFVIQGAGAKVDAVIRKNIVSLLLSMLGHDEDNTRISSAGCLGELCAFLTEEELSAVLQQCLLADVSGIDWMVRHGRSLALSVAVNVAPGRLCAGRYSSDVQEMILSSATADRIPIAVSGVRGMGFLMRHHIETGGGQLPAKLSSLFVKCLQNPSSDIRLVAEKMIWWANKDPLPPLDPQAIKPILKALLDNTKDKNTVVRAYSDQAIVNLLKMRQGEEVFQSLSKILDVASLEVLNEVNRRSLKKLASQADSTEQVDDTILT

## C[C@H](Oc1cc(-c2cnn(C3CCNCC3)c2)cnc1N)c1c(Cl)ccc(F)c1Cl [(5)-crizotinib]
[1]
  AvgP: 0.8429
  SC.Exp. 1-1: 4
  SC.Exp. 1-2: 3
  SC.Exp. 2-1: 3
  SC.Exp. 2-2: 3
  Sum (SC.Exp.): 13
[2]
  AvgP: 0.3981
  SC.Exp. 1-1: 3
  SC.Exp. 1-2: 4
  SC.Exp. 2-1: 0
  SC.Exp. 2-2: 0
  Sum (SC.Exp.): 7
[3]
  AvgP: 0.352
  SC.Exp. 1-1: 3
  SC.Exp. 1-2: 3
  SC.Exp. 2-1: 0
  SC.Exp. 2-2: 0
  Sum (SC.Exp.): 6
[4]
  AvgP: 0.3262
  SC.Exp. 1-1: 4
  SC.Exp. 1-2: 2
  SC.Exp. 2-1: 0
  SC.Exp. 2-2: 0
  Sum (SC.Exp.): 6
[5]
  AvgP: 0.4128
  SC.Exp. 1-1: 2
  SC.Exp. 1-2: 3
  SC.Exp. 2-1: 0
  SC.Exp. 2-2: 0
  Sum (SC.Exp.): 5
[6]
  AvgP: 0
  SC.Exp. 1-1: 9
  SC.Exp. 1-2: 7
  SC.Exp. 2-1: 7
  SC.Exp. 2-2: 6
  SC.Exp. Sum: 29
[7]
  AvgP: 0
  SC.Exp. 1-1: 37
  SC.Exp. 1-2: 34
  SC.Exp. 2-1: 37
  SC.Exp. 2-2: 37
  SC.Exp. Sum: 145
[8]
  AvgP: 0.1898
  SC.Exp. 1-1: 0
  SC.Exp. 1-2: 2
  SC.Exp. 2-1: 0
  SC.Exp. 2-2: 0
  Sum (SC.Exp.): 2
[9]
  AvgP: 0
  SC.Exp. 1-1: 9
  SC.Exp. 1-2: 7
  SC.Exp. 2-1: 6
  SC.Exp. 2-2: 4
  SC.Exp. Sum: 26

— patent US9446039B2, “Aminoheteroaryl compounds as MTH1 inhibitors” (CEMM—FORSCHUNGSZENTRUM FÜR MOLEKULARE MEDIZIN GMBH, priority 2012, dated 2016)
